Experimental data from PubChem BioAssay (NCI).
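Five concentrations, 48 hours, 96-well plates. GI50: concentration for 50% inhibition of growth. TGI is the concentration that stops growth completely.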 Where a SMILES comes first, the peptide text is derived from it. [ ]: non-standard residue; d: D form. pGlu = O=C1CC[CH](C(=O)O)N1

Key:
Test in all cases: NCI tumour cell line growth inhibition, 48 h
[1] = test system: XF 498 CNS
[2] = test system: HOP-18 NSCLC
[3] = test system: NCI-H226 lung
[4] = test system: NCI-H460 lung
[5] = test system: SK-MEL-2 melanoma
[6] = test system: M14 melanoma
[7] = test system: HCT-116 colon
[8] = test system: SR leukemia
[9] = test system: SK-MEL-28 melanoma
[10] = test system: MCF7 breast

CCOC(=O)C12CCCC1(O)N(NC(=O)OC(C)(C)C)C(C)=C2C(=O)OC (centres undefined)
TGI [1]: > 100 µM | TGI [2]: > 100 µM | TGI [3]: > 100 µM | TGI [4]: > 100 µM | TGI [5]: > 100 µM | TGI [6]: > 100 µM | TGI [7]: > 100 µM

COC1=C(N)C(=O)c2nc(C)ccc2C1=O
TGI [1]: 2.84 µM | TGI [2]: 3.53 µM | TGI [3]: 2.33 µM | TGI [4]: 4.11 µM | TGI [5]: 3.28 µM | TGI [6]: 3.33 µM | TGI [8]: > 24 µM | TGI [9]: 3.27 µM | TGI [7]: 3.99 µM

O=[N+]([O-])c1ccc(C[P+](c2ccccc2)(c2ccccc2)c2ccccc2)cc1
TGI [2]: > 100 µM | TGI [3]: > 100 µM | TGI [4]: > 100 µM | TGI [5]: > 100 µM | TGI [6]: > 100 µM | TGI [8]: > 100 µM | TGI [9]: > 100 µM | TGI [7]: > 100 µM

O=C(COc1ccc(Cl)cc1)N1N=C(c2ccc(Cl)cc2)CC1(O)c1ccccc1 (centres undefined)
TGI [1]: > 100 µM | TGI [2]: > 100 µM | TGI [3]: 48.1 µM | TGI [4]: 35.7 µM | TGI [5]: 80.7 µM | TGI [6]: 34.5 µM | TGI [8]: 17.7 µM | TGI [9]: 35.3 µM | TGI [7]: 26.3 µM

CCN(Cc1cc(Nc2nc(C)cn3c(-c4cn[nH]c4)cnc23)sn1)C(C)(C)CO
GI50 [3]: < 0.0106 µM | TGI [3]: 0.513 µM | GI50 [10]: 0.026 µM | TGI [10]: 2.01 µM | GI50 [4]: 0.044 µM | TGI [4]: 4.59 µM | GI50 [5]: 0.0293 µM | TGI [5]: 7.35 µM | GI50 [6]: 0.0421 µM | TGI [6]: 2.84 µM | GI50 [8]: < 0.01 µM | TGI [8]: 1.64 µM | GI50 [9]: 1.41 µM | TGI [9]: 14.7 µM | GI50 [7]: 0.0127 µM | TGI [7]: 2.3 µM

O/N=C1/C(=C/c2ccc3c(c2)OCO3)CCCC1C(NO)c1ccc2c(c1)OCO2 (centres undefined)
TGI [1]: 62.2 µM | TGI [2]: 42.5 µM | TGI [4]: 71.1 µM | TGI [5]: 48.1 µM | TGI [6]: 36.9 µM | TGI [9]: 40.1 µM | TGI [7]: 31.9 µM

COc1cc(/C=C\c2cc(OC)c(OC)c(OC)c2)cc(NC(=O)/C=C/c2cc(OC)c(OC)c(OC)c2)c1OC
GI50 [3]: 50 µM | TGI [3]: > 100 µM | GI50 [10]: 3.49 µM | TGI [10]: > 100 µM | GI50 [4]: 5.39 µM | TGI [4]: > 100 µM | GI50 [5]: 2.69 µM | TGI [5]: 9.77 µM | GI50 [6]: 3.78 µM | TGI [6]: > 100 µM | GI50 [8]: 0.23 µM | TGI [8]: > 100 µM | GI50 [9]: 3.51 µM | TGI [9]: > 100 µM | GI50 [7]: 4.57 µM | TGI [7]: > 100 µM

O=C(Nc1ccc([As](=O)(O)O)cc1)Nc1cccc(Cl)c1Cl
TGI [3]: > 100 µM | TGI [10]: > 100 µM | TGI [4]: > 100 µM | TGI [5]: > 100 µM | TGI [6]: > 100 µM | TGI [8]: > 100 µM | TGI [9]: > 100 µM | TGI [7]: > 100 µM

C=C1C(=O)O[C@H]2[C@H]1CC/C(CNC(=O)/C=C/c1cc(OC)c(OC)c(OC)c1)=C\CC[C@@]1(C)O[C@@H]21
GI50 [3]: 7.72 µM | TGI [3]: 28.7 µM | GI50 [10]: 0.531 µM | TGI [10]: 10.8 µM | GI50 [4]: 9.19 µM | TGI [4]: 24.5 µM | GI50 [5]: 1.73 µM | TGI [5]: 7.18 µM | GI50 [6]: 1.21 µM | TGI [6]: 2.87 µM | GI50 [8]: 0.383 µM | TGI [8]: 9.38 µM | GI50 [9]: 1.43 µM | TGI [9]: 3.64 µM | GI50 [7]: 0.76 µM | TGI [7]: 2.1 µM

COc1cc(C(O)CCBr)c(OC)cc1C (centres undefined)
TGI [3]: > 100 µM | TGI [10]: 54.7 µM | TGI [4]: > 100 µM | TGI [5]: 68.2 µM | TGI [6]: 33.9 µM | TGI [8]: > 31.6 µM | TGI [9]: > 100 µM | TGI [7]: > 100 µM

C=C(C)[C@@H]1CC[C@]2(C)CC[C@]3(C)[C@H](CC[C@@H]4[C@@]5(C)CC[C@H](O)C(C)(C)[C@@H]5CC[C@]43C)[C@@H]12
TGI [1]: > 100 µM | TGI [3]: > 86.5 µM | TGI [10]: 55.2 µM | TGI [4]: > 100 µM | TGI [5]: > 100 µM | TGI [6]: > 100 µM | TGI [8]: > 100 µM | TGI [9]: > 100 µM | TGI [7]: > 100 µM

Oc1c(-c2nnc(-c3ccccc3Cl)o2)sc2nnc(-c3ccccc3)c(-c3ccccc3)c12
GI50 [3]: 16.1 µM | TGI [3]: > 100 µM | GI50 [10]: 3.84 µM | TGI [10]: > 100 µM | GI50 [4]: 1.73 µM | TGI [4]: 15.3 µM | GI50 [5]: 3.23 µM | TGI [5]: 15.7 µM | GI50 [6]: 5 µM | TGI [6]: 39.3 µM | GI50 [8]: 3.96 µM | TGI [8]: > 100 µM | GI50 [9]: 16.4 µM | TGI [9]: > 100 µM | GI50 [7]: 2.92 µM | TGI [7]: 11.4 µM

CN(Cc1ccccc1)C(=NC#N)N(Cc1ccccc1)Cc1ccccc1
TGI [3]: 67.5 µM | TGI [10]: 93.2 µM | TGI [4]: > 90.1 µM | TGI [5]: 40.7 µM | TGI [6]: 47.7 µM | TGI [8]: > 100 µM | TGI [9]: 83.1 µM | TGI [7]: > 55.3 µM

O=C1C(Cl)=C(Nc2cccc(Cl)c2)C(=O)N1Cc1ccc(Cl)cc1
GI50 [3]: 0.119 µM | TGI [3]: 1.37 µM | GI50 [10]: 0.499 µM | TGI [10]: 13.6 µM | GI50 [4]: 0.538 µM | TGI [4]: 15.7 µM | GI50 [5]: 2.2 µM | GI50 [6]: 2.11 µM | TGI [6]: 9.94 µM | GI50 [8]: 0.215 µM | GI50 [9]: 3.12 µM | TGI [9]: 23.5 µM | GI50 [7]: 0.442 µM | TGI [7]: 6.53 µM

Cc1cc(CC(=O)NCCO)n(CCO)c(=O)c1
TGI [1]: > 100 µM | TGI [2]: > 100 µM | TGI [4]: > 100 µM | TGI [6]: > 100 µM | TGI [8]: > 100 µM | TGI [9]: > 100 µM | TGI [7]: > 100 µM

CC1=C(C(=O)Nc2cc(=O)n(C)c(=O)n2C)C(c2ccco2)C(C(=O)Nc2cc(=O)n(C)c(=O)n2C)=C(C)N1
TGI [1]: > 100 µM | TGI [3]: > 100 µM | TGI [4]: > 100 µM | TGI [5]: > 100 µM | TGI [6]: > 100 µM | TGI [9]: > 100 µM

Cc1c2ccncc2c(C)c2c1[nH]c1ccc(OC(C)C)cc12
TGI [1]: 2.91 µM | TGI [2]: 2.93 µM | TGI [3]: 3.05 µM | TGI [4]: 2.25 µM | TGI [5]: 3.22 µM | TGI [6]: 2.96 µM | TGI [8]: 3.73 µM | TGI [9]: 3.21 µM | TGI [7]: 2.04 µM

CCNC(=O)C1CCCN1C(=O)C(CCCN=C(N)N)NC(=O)C(CC(C)C)NC(=O)C(CC(C)C)NC(=O)C(Cc1ccc(O)cc1)NC(=O)C(CO)NC(=O)C(Cc1c[nH]c2ccccc12)NC(=O)C(Cc1cnc[nH]1)NC(=O)C1CCC(=O)N1 (centres undefined) ([pGlu]HWSYLLRP-NHEt; configuration not given here)
GI50 [3]: > 100 µM | TGI [3]: > 100 µM | GI50 [10]: > 100 µM | TGI [10]: > 100 µM | GI50 [4]: > 100 µM | TGI [4]: > 100 µM | GI50 [5]: > 100 µM | TGI [5]: > 100 µM | GI50 [6]: > 100 µM | TGI [6]: > 100 µM | GI50 [8]: > 100 µM | TGI [8]: > 100 µM | GI50 [9]: > 100 µM | TGI [9]: > 100 µM | GI50 [7]: > 100 µM | TGI [7]: > 100 µM
